Measurements as given in ChEMBL document CHEMBL5678818, “Discovery of potent SOS1 inhibitors that block RAS activation via disruption of the RAS-SOS1 interaction” (Proc Natl Acad Sci U S A, 2019).

Tests used:
[1] = target: Cyclin-dependent kinase-like 3 (Homo sapiens) (UniProt Q8IVW4); experiment: Inhibition of CDKL3 (unknown origin) assessed as residual activity at 100 nM by KINOMEscan analysis relative to control
[2] = target: Tyrosine-protein kinase Blk (Homo sapiens) (UniProt P51451); experiment: Inhibition of BLK (unknown origin) assessed as residual activity at 100 nM by KINOMEscan analysis relative to control
[3] = target: Serine/threonine-protein kinase 35 (Homo sapiens) (UniProt Q8TDR2); experiment: Inhibition of STK35 (unknown origin) assessed as residual activity at 100 nM by KINOMEscan analysis relative to control
[4] = target: T1, Phosphatidylinositol 3-kinase C2 domain-containing subunit gamma (Homo sapiens) (UniProt O75747); experiment: Inhibition of PIK3C2G (unknown origin) assessed as residual activity at 100 nM by KINOMEscan analysis relative to control
T1 sequence (whole entry): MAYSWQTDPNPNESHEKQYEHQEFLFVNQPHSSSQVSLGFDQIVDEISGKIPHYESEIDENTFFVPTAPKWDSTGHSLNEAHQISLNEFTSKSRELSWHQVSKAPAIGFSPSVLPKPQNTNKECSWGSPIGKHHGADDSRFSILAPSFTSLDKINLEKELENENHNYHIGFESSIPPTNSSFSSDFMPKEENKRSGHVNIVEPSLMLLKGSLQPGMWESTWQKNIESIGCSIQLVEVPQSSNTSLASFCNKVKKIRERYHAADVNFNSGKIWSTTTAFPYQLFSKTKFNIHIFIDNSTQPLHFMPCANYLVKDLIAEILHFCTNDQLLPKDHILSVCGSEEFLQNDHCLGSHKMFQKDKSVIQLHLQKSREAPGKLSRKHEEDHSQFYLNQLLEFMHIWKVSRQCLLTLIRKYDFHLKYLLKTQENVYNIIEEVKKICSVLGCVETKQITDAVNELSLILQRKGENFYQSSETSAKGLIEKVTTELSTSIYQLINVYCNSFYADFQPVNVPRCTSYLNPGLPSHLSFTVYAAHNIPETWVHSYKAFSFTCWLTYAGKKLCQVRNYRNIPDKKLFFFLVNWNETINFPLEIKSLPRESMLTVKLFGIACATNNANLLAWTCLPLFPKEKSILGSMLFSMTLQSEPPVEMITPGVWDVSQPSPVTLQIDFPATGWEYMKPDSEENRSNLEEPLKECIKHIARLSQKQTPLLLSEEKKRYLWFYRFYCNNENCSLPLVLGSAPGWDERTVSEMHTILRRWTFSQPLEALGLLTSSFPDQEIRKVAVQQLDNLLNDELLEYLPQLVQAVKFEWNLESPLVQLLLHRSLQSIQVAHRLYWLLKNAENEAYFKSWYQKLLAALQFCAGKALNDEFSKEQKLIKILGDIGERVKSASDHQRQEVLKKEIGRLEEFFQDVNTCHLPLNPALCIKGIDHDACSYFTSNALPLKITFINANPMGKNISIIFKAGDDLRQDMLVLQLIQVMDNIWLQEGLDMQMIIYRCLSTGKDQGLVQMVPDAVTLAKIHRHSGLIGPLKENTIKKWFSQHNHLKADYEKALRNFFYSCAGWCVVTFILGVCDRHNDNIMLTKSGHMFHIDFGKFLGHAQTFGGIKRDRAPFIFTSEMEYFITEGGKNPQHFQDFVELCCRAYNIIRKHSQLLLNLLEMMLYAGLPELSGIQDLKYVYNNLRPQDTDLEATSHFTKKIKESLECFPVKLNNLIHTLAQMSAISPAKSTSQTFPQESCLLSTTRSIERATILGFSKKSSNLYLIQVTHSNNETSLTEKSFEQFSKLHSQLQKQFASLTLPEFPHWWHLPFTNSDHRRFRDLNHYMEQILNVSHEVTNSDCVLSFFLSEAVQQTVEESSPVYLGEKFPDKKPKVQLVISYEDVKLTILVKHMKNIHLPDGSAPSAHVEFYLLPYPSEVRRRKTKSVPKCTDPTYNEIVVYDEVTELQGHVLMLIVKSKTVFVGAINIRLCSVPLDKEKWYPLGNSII

[5] = target: Calcium/calmodulin-dependent protein kinase type II subunit gamma (Homo sapiens) (UniProt Q13555); experiment: Inhibition of CAMK2G (unknown origin) assessed as residual activity at 100 nM by KINOMEscan analysis relative to control
[6] = target: T2, Phosphatidylinositol 5-phosphate 4-kinase type-2 gamma (Homo sapiens) (UniProt Q8TBX8); experiment: Inhibition of PIP5K2C (unknown origin) assessed as residual activity at 100 nM by KINOMEscan analysis relative to control
T2 sequence (whole entry): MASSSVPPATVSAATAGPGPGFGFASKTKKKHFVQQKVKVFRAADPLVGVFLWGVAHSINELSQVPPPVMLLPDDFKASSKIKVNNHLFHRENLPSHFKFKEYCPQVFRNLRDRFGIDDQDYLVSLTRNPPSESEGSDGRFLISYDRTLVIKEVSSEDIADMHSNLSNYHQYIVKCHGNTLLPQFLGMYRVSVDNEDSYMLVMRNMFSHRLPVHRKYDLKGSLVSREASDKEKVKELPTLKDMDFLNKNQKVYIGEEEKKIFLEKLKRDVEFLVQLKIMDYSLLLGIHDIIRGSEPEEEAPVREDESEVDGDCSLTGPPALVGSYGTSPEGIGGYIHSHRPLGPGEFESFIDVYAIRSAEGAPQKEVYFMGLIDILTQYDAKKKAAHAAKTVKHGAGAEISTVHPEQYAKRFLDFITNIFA

[7] = target: Macrophage-stimulating protein receptor (Homo sapiens) (UniProt Q04912); experiment: Inhibition of MST1R (unknown origin) assessed as residual activity at 100 nM by KINOMEscan analysis relative to control
Chain of Macrophage-stimulating protein receptor (Homo sapiens) (Q04912 25-304 limits assumed): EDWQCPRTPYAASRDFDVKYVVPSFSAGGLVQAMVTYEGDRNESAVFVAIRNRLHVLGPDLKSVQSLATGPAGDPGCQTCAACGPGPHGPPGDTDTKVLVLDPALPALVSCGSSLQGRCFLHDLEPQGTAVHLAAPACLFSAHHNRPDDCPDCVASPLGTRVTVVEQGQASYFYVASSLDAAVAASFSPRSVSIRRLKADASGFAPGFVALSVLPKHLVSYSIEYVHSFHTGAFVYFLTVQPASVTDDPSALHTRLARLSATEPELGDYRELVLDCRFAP
Chain of Macrophage-stimulating protein receptor (Homo sapiens) (Q04912 310-1400 limits assumed): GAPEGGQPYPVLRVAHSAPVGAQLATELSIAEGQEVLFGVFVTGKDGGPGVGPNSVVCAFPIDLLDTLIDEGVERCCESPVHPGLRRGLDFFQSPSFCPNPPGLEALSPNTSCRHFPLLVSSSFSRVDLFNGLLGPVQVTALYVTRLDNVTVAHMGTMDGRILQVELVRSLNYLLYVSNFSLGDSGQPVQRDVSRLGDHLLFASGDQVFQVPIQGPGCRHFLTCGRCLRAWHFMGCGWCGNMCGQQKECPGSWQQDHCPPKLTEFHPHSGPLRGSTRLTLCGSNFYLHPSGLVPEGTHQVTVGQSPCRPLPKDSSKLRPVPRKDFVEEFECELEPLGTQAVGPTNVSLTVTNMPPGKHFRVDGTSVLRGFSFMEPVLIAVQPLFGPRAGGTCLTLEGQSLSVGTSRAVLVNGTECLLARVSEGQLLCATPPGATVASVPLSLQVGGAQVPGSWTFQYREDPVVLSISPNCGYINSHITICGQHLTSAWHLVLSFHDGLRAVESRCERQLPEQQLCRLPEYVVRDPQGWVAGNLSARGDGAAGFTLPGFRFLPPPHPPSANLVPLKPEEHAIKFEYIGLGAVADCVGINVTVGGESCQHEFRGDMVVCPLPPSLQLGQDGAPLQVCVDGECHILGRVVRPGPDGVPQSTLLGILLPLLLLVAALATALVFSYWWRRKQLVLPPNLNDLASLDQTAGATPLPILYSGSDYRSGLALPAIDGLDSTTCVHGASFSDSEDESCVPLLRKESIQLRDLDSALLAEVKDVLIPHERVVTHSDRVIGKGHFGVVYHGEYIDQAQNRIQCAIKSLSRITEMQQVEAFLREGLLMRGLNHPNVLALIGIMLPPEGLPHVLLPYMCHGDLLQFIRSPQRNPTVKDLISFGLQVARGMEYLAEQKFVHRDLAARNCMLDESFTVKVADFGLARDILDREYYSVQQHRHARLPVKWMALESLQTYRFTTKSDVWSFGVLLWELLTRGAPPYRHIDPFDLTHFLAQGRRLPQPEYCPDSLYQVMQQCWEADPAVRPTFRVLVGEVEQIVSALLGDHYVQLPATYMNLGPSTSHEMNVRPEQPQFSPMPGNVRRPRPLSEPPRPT

Chain of Serine/threonine-protein kinase 35 (Homo sapiens) (Q8TDR2 whole entry, the tested form may be a part): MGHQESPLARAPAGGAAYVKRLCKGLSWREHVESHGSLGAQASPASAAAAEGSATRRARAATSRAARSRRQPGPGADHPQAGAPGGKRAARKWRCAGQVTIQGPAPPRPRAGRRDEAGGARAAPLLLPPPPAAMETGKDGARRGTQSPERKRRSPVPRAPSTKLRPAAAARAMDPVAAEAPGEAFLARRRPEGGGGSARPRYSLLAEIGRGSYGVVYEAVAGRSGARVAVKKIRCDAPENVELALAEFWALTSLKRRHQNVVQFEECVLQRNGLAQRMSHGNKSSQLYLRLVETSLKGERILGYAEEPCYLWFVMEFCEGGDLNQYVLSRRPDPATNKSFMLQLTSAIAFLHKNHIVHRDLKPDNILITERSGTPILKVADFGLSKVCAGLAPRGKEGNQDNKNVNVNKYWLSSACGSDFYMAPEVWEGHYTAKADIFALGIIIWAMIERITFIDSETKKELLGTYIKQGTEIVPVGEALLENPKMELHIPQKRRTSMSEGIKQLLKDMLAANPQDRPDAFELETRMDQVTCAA
Chain of Cyclin-dependent kinase-like 3 (Homo sapiens) (Q8IVW4 whole entry, looked up): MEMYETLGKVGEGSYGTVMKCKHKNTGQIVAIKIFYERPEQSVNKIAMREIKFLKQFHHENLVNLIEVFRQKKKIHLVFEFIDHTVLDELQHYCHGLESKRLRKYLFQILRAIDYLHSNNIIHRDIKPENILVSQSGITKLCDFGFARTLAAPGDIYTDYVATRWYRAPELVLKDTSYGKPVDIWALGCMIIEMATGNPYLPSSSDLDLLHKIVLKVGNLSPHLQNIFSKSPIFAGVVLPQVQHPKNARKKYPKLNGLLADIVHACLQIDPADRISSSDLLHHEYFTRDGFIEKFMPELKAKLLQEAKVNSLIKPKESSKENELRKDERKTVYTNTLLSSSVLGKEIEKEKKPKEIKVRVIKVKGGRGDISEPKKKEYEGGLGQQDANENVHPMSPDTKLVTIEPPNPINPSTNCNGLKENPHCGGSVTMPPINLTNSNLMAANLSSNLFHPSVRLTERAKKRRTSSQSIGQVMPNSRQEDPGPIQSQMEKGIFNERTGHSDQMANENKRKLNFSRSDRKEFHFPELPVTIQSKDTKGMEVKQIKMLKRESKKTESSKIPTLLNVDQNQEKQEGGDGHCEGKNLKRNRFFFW
Chain of Tyrosine-protein kinase Blk (Homo sapiens) (P51451 2-505 limits assumed): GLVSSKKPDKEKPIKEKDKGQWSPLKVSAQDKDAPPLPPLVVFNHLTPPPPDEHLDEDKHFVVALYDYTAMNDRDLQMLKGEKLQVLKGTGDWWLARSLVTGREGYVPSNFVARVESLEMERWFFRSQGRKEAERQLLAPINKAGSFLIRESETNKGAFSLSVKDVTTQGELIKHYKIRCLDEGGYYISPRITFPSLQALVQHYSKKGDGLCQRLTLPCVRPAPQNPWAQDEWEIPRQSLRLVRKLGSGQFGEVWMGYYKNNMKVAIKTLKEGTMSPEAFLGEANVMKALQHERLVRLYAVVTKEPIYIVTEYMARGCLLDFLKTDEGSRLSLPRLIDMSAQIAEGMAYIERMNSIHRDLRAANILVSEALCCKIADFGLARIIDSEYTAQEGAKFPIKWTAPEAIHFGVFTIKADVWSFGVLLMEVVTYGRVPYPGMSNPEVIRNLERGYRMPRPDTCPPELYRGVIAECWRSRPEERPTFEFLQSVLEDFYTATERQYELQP
Chain of Calcium/calmodulin-dependent protein kinase type II subunit gamma (Homo sapiens) (Q13555 whole entry): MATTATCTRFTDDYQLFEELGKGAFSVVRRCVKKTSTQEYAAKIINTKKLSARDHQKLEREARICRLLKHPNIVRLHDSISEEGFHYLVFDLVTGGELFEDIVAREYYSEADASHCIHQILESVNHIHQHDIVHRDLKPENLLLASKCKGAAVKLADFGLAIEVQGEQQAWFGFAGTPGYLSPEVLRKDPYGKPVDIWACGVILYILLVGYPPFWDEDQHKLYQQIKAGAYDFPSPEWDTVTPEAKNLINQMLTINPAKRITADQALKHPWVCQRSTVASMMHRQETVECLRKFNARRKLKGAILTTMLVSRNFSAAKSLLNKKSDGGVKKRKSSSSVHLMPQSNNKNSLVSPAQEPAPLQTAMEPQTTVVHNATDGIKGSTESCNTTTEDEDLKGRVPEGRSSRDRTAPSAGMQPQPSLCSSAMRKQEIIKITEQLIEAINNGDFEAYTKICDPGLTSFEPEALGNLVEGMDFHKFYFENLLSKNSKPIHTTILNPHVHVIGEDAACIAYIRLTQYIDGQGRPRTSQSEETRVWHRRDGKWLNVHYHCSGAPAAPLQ

Compound: COc1cc2ncnc(N[C@H](C)c3cccc4ccccc34)c2cc1OC
- Activity [1]: 100%
- Activity [2]: 77%
- Activity [3]: 98%
- Activity [4]: 85%
- Activity [5]: 60%
- Activity [6]: 96%
- Activity [7]: 100%
